Patent publication US20060069132A1, “Azolecarboxamide herbicides” (priority 2004, published 2006)

Tests used:
barnyardgrass [1] = assay: Test B pre-/postemergence herbicide test; type: in vivo, Echinochloa crus-galli; conditions: for Barnyardgrass plant response rating (0 to 100 scale) / Plant response rating, Barnyardgrass: 0 = no effect, 100 = complete control, preemergence; for Plant response rating, Barnyardgrass / Barnyardgrass plant response rating: visual rating; for Barnyardgrass plant response rating: postemergence, scale 0 (no effect) to 100 (complete control)
Procedure, shortened: (§1)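 Seeds were planted and treated preemergence with compounds formulated in a non-phytotoxic solvent mixture containing surfactant, while plants at the 1- to 4-leaf stage (2 to 18 cm) received postemergence sprays. Flooded paddy plants were grown to the 2-leaf stage. After 13 to 15 days in a greenhouse, injury was visually rated 0–100 against untreated controls.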

Surinam grass = assay: Test B pre-/postemergence herbicide test; type: in vivo, Urochloa decumbens; conditions: for Surinam Grass plant response rating (0 to 100 scale) / Plant response rating, Surinam Grass: 0 = no effect, 100 = complete control, preemergence; for Surinam Grass plant response rating: postemergence
Procedure, shortened: (§2)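 Flooded paddy rice and barnyardgrass were treated at the 2-leaf stage; upland plantings received compound either on sown seed or on 1- to 4-leaf seedlings. All were kept 13–15 days in a greenhouse and scored visually, 0–100, relative to untreated plants.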

cocklebur = assay: Test B pre-/postemergence herbicide test; type: in vivo, Xanthium strumarium; conditions: for Cocklebur plant response rating (0 to 100 scale) / Plant response rating, Cocklebur: 0 = no effect, 100 = complete control, preemergence; for Plant response rating, Cocklebur / Cocklebur plant response rating: visual rating; for Cocklebur plant response rating: postemergence, scale 0 (no effect) to 100 (complete control)
Procedure, shortened: as §1

corn = assay: Test B pre-/postemergence herbicide test; type: in vivo, Zea mays; conditions: for Corn plant response rating (0 to 100 scale) / Plant response rating, Corn: 0 = no effect, 100 = complete control, preemergence; for Corn plant response rating: postemergence
Procedure, shortened: as §2

large crabgrass = assay: Test B pre-/postemergence herbicide test; type: in vivo, Digitaria sanguinalis; conditions: for Crabgrass, Large plant response rating: postemergence
Procedure, shortened: as §2

giant foxtail = assay: Test B pre-/postemergence herbicide test; type: in vivo, Setaria faberi; conditions: for Foxtail, Giant plant response rating (0 to 100 scale) / Plant response rating, Foxtail, Giant: 0 = no effect, 100 = complete control, preemergence; for Foxtail, Giant plant response rating: postemergence
Procedure, shortened: as §2

lambsquarters = assay: Test B pre-/postemergence herbicide test; type: in vivo, Chenopodium album; conditions: for Lambsquarters plant response rating: postemergence
Procedure, shortened: as §2

morningglory = assay: Test B pre-/postemergence herbicide test; type: in vivo, Ipomoea coccinea; conditions: for Morningglory plant response rating (0 to 100 scale) / Plant response rating, Morningglory: 0 = no effect, 100 = complete control, preemergence; for Morningglory plant response rating: postemergence
Procedure, shortened: as §1

pigweed = assay: Test B pre-/postemergence herbicide test; type: in vivo, Amaranthus retroflexus; conditions: for Pigweed plant response rating: postemergence
Procedure, shortened: as §2

rice [2] = assay: Test B pre-/postemergence herbicide test; type: in vivo, Oryza sativa; conditions: 0 = no effect, 100 = complete control, preemergence; for Rice plant response rating (0 to 100 scale): 125 g ai/ha; for Plant response rating, Rice: 500 g ai/ha, visual rating
Procedure, shortened: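 Evaluation is visual, comparing treated with control plants on a scale where 0 means no effect and 100 means full control. Treatments were preemergence, or postemergence on seedlings 2–18 cm tall, and held 13–15 days in the greenhouse.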

velvetleaf = assay: Test B pre-/postemergence herbicide test; type: in vivo, Abutilon theophrasti; conditions: for Velvetleaf plant response rating (0 to 100 scale) / Plant response rating, Velvetleaf: 0 = no effect, 100 = complete control, preemergence; for Velvetleaf plant response rating: postemergence
Procedure, shortened: as §2

blackgrass = assay: Test B postemergence herbicide test; type: in vivo, Alopecurus myosuroides; conditions: postemergence, visual rating, scale 0 (no effect) to 100 (complete control)
Procedure, shortened: (§3)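 Postemergence plants were sprayed with formulated test chemicals at 2 to 18 cm height (1- to 4-leaf stage); paddy species were grown to the 2-leaf stage. After 13 to 15 days in a greenhouse, injury was rated visually against untreated controls on a 0–100 scale (0 = no effect, 100 = complete control).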

wheat = assay: Test B postemergence herbicide test; type: in vivo, Triticum aestivum; parameters: key to Wheat plant response rating: 0 = no effect, 100 = complete control; conditions: postemergence
Procedure, shortened: (§4)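 Read-out: visual comparison with controls, scored 0 to 100, where 100 means complete control and 0 no effect. Formulated chemicals were applied postemergence to plants 2–18 cm tall (1- to 4-leaf), or to flooded-paddy plants at the 2-leaf stage, then held 13 to 15 days under glass.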

wild oat = assay: Test B postemergence herbicide test; type: in vivo, Avena fatua; conditions: postemergence
Procedure, shortened: as §4

rice [3] = assay: Test B flooded paddy test; type: in vivo, Oryza sativa; conditions: 1000 g ai/ha, scale 0 to 100 (0 no effect, 100 complete control)
Procedure, shortened: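 After treating 2-leaf paddy plants or 2–18 cm postemergence plants (1 to 4 leaves) with formulated chemical, researchers kept them in a greenhouse for 13–15 days. Effects were judged visually versus controls: 0 indicates none, 100 total control.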

[4] = test system: small flower umbrella sedge; assay: Test B flooded paddy test; type: in vivo, Cyperus difformis; conditions: 1000 g ai/ha, scale 0 to 100 (0 no effect, 100 complete control)
Procedure, shortened: as §3

ducksalad = assay: Test B flooded paddy test; type: in vivo, Heteranthera limosa; conditions: 1000 g ai/ha, scale 0 to 100 (0 no effect, 100 complete control)
Procedure, shortened: as §3

barnyardgrass [5] = assay: Test B flooded paddy test; type: in vivo, Echinochloa crus-galli; conditions: 1000 g ai/ha, scale 0 to 100 (0 no effect, 100 complete control)
Procedure, shortened: as §3

[6] = 125 g ai/ha, visual rating, scale 0 (no effect) to 100 (complete control)
[7] = 500 g ai/ha, visual rating, scale 0 (no effect) to 100 (complete control)
[8] = 125 g ai/ha, 0 = no effect, 100 = complete control, preemergence
[9] = 500 g ai/ha, visual rating, 0 = no effect, 100 = complete control, preemergence
[10] = 500 g ai/ha, scale 0 to 100, 0 is no effect, 100 is complete control

CCNC(=O)c1ccnc(NC(=O)c2nn(C(C)(C)C)cc2CC)c1 [Compound 233]
Barnyardgrass plant response rating (0 to 100 scale) (barnyardgrass [1]; 125 g ai/ha): 10 | Plant response rating, Barnyardgrass (barnyardgrass [1]; 500 g ai/ha): 10 | Surinam Grass plant response rating (0 to 100 scale) (Surinam grass; 125 g ai/ha): 0 | Plant response rating, Surinam Grass (Surinam grass; 500 g ai/ha, visual rating): 20 | Surinam Grass plant response rating (Surinam grass; [6]): 10 | Surinam Grass plant response rating (Surinam grass; [7]): 20 | Cocklebur plant response rating (0 to 100 scale) (cocklebur; 125 g ai/ha): 0 | Plant response rating, Cocklebur (cocklebur; 500 g ai/ha): 0 | Cocklebur plant response rating (cocklebur; 125 g ai/ha): 20 | Cocklebur plant response rating (cocklebur; 500 g ai/ha): 20 | Corn plant response rating (0 to 100 scale) (corn; 125 g ai/ha): 0 | Plant response rating, Corn (corn; 500 g ai/ha, visual rating): 0 | Corn plant response rating (corn; [6]): 10 | Corn plant response rating (corn; [7]): 30 | Crabgrass, Large plant response rating (0 to 100 scale) (large crabgrass; [8]): 20 | Plant response rating, Crabgrass, Large (large crabgrass; [9]): 90 | Crabgrass, Large plant response rating (large crabgrass; [6]): 10 | Crabgrass, Large plant response rating (large crabgrass; [7]): 10 | Foxtail, Giant plant response rating (0 to 100 scale) (giant foxtail; 125 g ai/ha): 0 | Plant response rating, Foxtail, Giant (giant foxtail; 500 g ai/ha, visual rating): 0 | Foxtail, Giant plant response rating (giant foxtail; [6]): 0 | Foxtail, Giant plant response rating (giant foxtail; [7]): 30 | Lambsquarters plant response rating (0 to 100 scale) (lambsquarters; [8]): 0 | Plant response rating, Lambsquarters (lambsquarters; [9]): 30 | Lambsquarters plant response rating (lambsquarters; [6]): 50 | Lambsquarters plant response rating (lambsquarters; [7]): 70 | Morningglory plant response rating (0 to 100 scale) (morningglory; 125 g ai/ha): 0 | Plant response rating, Morningglory (morningglory; 500 g ai/ha, visual rating): 0 | Morningglory plant response rating (morningglory; [6]): 50 | Morningglory plant response rating (morningglory; [7]): 80 | Pigweed plant response rating (0 to 100 scale) (pigweed; [8]): 0 | Plant response rating, Pigweed (pigweed; [9]): 60 | Pigweed plant response rating (pigweed; [6]): 60 | Pigweed plant response rating (pigweed; [7]): 70 | Rice plant response rating (0 to 100 scale) (rice [2]): 0 | Plant response rating, Rice (rice [2]): 0 | Velvetleaf plant response rating (0 to 100 scale) (velvetleaf; 125 g ai/ha): 10 | Plant response rating, Velvetleaf (velvetleaf; 500 g ai/ha, visual rating): 10 | Velvetleaf plant response rating (velvetleaf; [6]): 30 | Velvetleaf plant response rating (velvetleaf; [7]): 50 | Blackgrass plant response rating (blackgrass; 125 g ai/ha): 0 | Blackgrass plant response rating (blackgrass; 500 g ai/ha): 10 | Wheat plant response rating (wheat; [6]): 0 | Wheat plant response rating (wheat; [7]): 10 | Oat, Wild plant response rating (wild oat; [6]): 0 | Oat, Wild plant response rating (wild oat; [7]): 20 | Rice plant response rating (rice [3]): 30 | Sedge, Umbrella plant response rating [4]: 80 | Ducksalad plant response rating (ducksalad): 50 | Barnyardgrass plant response rating (barnyardgrass [5]): 0

CCNC(=O)c1cc(NC(=O)c2cc(C(C)(C)C)nn2CC)ccn1 [Compound 257]
Barnyardgrass plant response rating (0 to 100 scale) (barnyardgrass [1]; 125 g ai/ha): 0 | Plant response rating, Barnyardgrass (barnyardgrass [1]; 500 g ai/ha): 20 | Barnyardgrass plant response rating (barnyardgrass [1]; 125 g ai/ha): 0 | Barnyardgrass plant response rating (barnyardgrass [1]; 500 g ai/ha): 0 | Surinam Grass plant response rating (0 to 100 scale) (Surinam grass; 125 g ai/ha): 0 | Plant response rating, Surinam Grass (Surinam grass; 500 g ai/ha, visual rating): 0 | Surinam Grass plant response rating (Surinam grass; [6]): 0 | Surinam Grass plant response rating (Surinam grass; [10]): 20 | Cocklebur plant response rating (0 to 100 scale) (cocklebur; 125 g ai/ha): 0 | Plant response rating, Cocklebur (cocklebur; 500 g ai/ha): 0 | Cocklebur plant response rating (cocklebur; 125 g ai/ha): 0 | Cocklebur plant response rating (cocklebur; 500 g ai/ha): 70 | Corn plant response rating (0 to 100 scale) (corn; 125 g ai/ha): 0 | Plant response rating, Corn (corn; 500 g ai/ha, visual rating): 0 | Corn plant response rating (corn; [6]): 0 | Corn plant response rating (corn; [10]): 0 | Crabgrass, Large plant response rating (0 to 100 scale) (large crabgrass; [8]): 0 | Crabgrass, Large plant response rating (large crabgrass; [6]): 0 | Crabgrass, Large plant response rating (large crabgrass; [10]): 10 | Foxtail, Giant plant response rating (0 to 100 scale) (giant foxtail; 125 g ai/ha): 0 | Plant response rating, Foxtail, Giant (giant foxtail; 500 g ai/ha, visual rating): 50 | Foxtail, Giant plant response rating (giant foxtail; [6]): 0 | Foxtail, Giant plant response rating (giant foxtail; [10]): 0 | Lambsquarters plant response rating (0 to 100 scale) (lambsquarters; [8]): 0 | Lambsquarters plant response rating (lambsquarters; [6]): 20 | Lambsquarters plant response rating (lambsquarters; [10]): 50 | Morningglory plant response rating (0 to 100 scale) (morningglory; 125 g ai/ha): 0 | Plant response rating, Morningglory (morningglory; 500 g ai/ha, visual rating): 0 | Morningglory plant response rating (morningglory; [6]): 0 | Morningglory plant response rating (morningglory; [10]): 0 | Pigweed plant response rating (0 to 100 scale) (pigweed; [8]): 0 | Pigweed plant response rating (pigweed; [6]): 60 | Pigweed plant response rating (pigweed; [10]): 80 | Rice plant response rating (0 to 100 scale) (rice [2]): 0 | Plant response rating, Rice (rice [2]): 0 | Velvetleaf plant response rating (0 to 100 scale) (velvetleaf; 125 g ai/ha): 0 | Plant response rating, Velvetleaf (velvetleaf; 500 g ai/ha, visual rating): 0 | Velvetleaf plant response rating (velvetleaf; [6]): 0 | Velvetleaf plant response rating (velvetleaf; [10]): 10 | Blackgrass plant response rating (blackgrass; 125 g ai/ha): 0 | Blackgrass plant response rating (blackgrass; 500 g ai/ha): 10 | Wheat plant response rating (wheat; [6]): 0 | Wheat plant response rating (wheat; [10]): 20 | Oat, Wild plant response rating (wild oat; [6]): 10 | Oat, Wild plant response rating (wild oat; [10]): 30 | Rice plant response rating (rice [3]): 30 | Sedge, Umbrella plant response rating [4]: 0 | Ducksalad plant response rating (ducksalad): 50 | Barnyardgrass plant response rating (barnyardgrass [5]): 0
